Activity calls are given as the source filed them. No cut-off for these calls is given here.
Assays:
MCF7 [1] = test: Antiproliferative activity against BRCA-proficient human MCF7 cells after 48 hrs by MTT assay; format: functional, cell-based; settings: MCF7, 48 h
MDA-MB-231 = test: Antiproliferative activity against BRCA-proficient human MDA-MB-231 cells after 48 hrs by MTT assay; format: functional, cell-based; settings: MDA-MB-231, 48 h
CAPAN-1 = test: Antiproliferative activity against BRCA2-deficient human Capan1 cells after 48 hrs by MTT assay; format: functional, cell-based; settings: CAPAN-1, 48 h
MX1 = test: Antiproliferative activity against BRCA1-deficient human MX1 cells after 48 hrs by MTT assay; format: functional, cell-based; settings: MX1, 48 h
SK-BR-3 = test: Antiproliferative activity against BRCA-proficient human SKBR3 cells after 48 hrs by MTT assay; format: functional, cell-based; settings: SK-BR-3, 48 h
HCC1937 [2] = test: Antiproliferative activity against BRCA1-deficient human HCC1937 cells after 48 hrs by MTT assay; format: functional, cell-based; settings: HCC1937, 48 h
MCF7 [3] = test: Potency index, ratio of compound IC50 to Olaparib IC50 for antiproliferative activity against human MCF7 cells; format: functional
Heat shock protein HSP90 [4] = biological target: T1, Heat shock protein HSP90 (Homo sapiens, UniProt P07900+P08238)
Description: Binding affinity to HSP90 (unknown origin) assessed as Stern-Volmer quenching constant by Stern-Volmer plot analysis

Heat shock protein HSP90 [5] = biological target: T1, Heat shock protein HSP90; test: Binding affinity to HSP90 (unknown origin) by fluorescence quenching method; format: protein assay
Heat shock protein HSP90 [6] = biological target: T1, Heat shock protein HSP90; remark: listed apart in the source
Description: Binding affinity to HSP90 (unknown origin) assessed as quenching constant by Stern-Volmer plot analysis

Heat shock protein HSP90 [7] = biological target: T1, Heat shock protein HSP90; remark: listed apart in the source
Description: Binding affinity to HSP90 (unknown origin) by Line weaver-Burk plot analysis

MCF7 [8] = test: Inhibition of PARP in human MCF7 cells assessed as down regulation of PAR at 1 to 100 uM in presence of adriamycin by western blotting analysis; format: cell-based
Heat shock protein HSP90 [9] = biological target: T1, Heat shock protein HSP90; test: Inhibition of HSP90 in human MDA-MB-231 cells assessed as down regulation of BRCA1 protein expression at 1 to 100 uM in presence of adriamycin by western blotting analysis; format: cell-based
Heat shock protein HSP90 [10] = biological target: T1, Heat shock protein HSP90; test: Inhibition of HSP90 (unknown origin) by fluorescence quenching method; format: protein assay
HCC1937 [11] = test: Potency index, ratio of compound IC50 to Olaparib IC50 for antiproliferative activity against human HCC1937 cells; format: functional

| Structure (SMILES) | IC50 (MCF7 [1]) [µM] | IC50 (MDA-MB-231) [µM] | IC50 (CAPAN-1) [µM] | IC50 (MX1) [µM] | IC50 (SK-BR-3) [µM] | IC50 (HCC1937 [2]) [µM] | Ratio IC50 (MCF7 [3]) | KSV (Heat shock protein HSP90 [4]) [×10⁴ L/mol] | Kd (Heat shock protein HSP90 [5]) [µM] | Kq (Heat shock protein HSP90 [6]) [×10¹² L/mol/s] | Ka (Heat shock protein HSP90 [7]) [×10⁵ L/mol] | inhibition (MCF7 [8]) | inhibition (Heat shock protein HSP90 [9]) | IC50 (Heat shock protein HSP90 [10]) [µM] | Ratio IC50 (HCC1937 [11]) |
| --- | --- | --- | --- | --- | --- | --- | --- | --- | --- | --- | --- | --- | --- | --- | --- |
| COc1cc(/C=C2\CN(C(=O)c3cc(Cc4n[nH]c(=O)c5ccccc45)ccc3F)C/C(=C\c3cc(OC)c(OC)c(OC)c3)C2=O)cc(OC)c1OC | > 200 | > 200 | 118 | 34.6 | > 200 | 65.3 |  |  |  |  |  |  |  |  |  |
| O=C(c1cc(Cc2n[nH]c(=O)c3ccccc23)ccc1F)N1CCN(C(=O)C2CC2)CC1 [OLAPARIB] | > 200 | > 200 | 83.1 | 35.8 | 232 | > 200 |  |  |  |  |  |  |  |  |  |
| O=C1/C(=C/c2ccc(Cl)cc2)CN(C(=O)c2cc(Cc3n[nH]c(=O)c4ccccc34)ccc2F)C/C1=C\c1ccc(Cl)cc1 | 1.21 | 8 | 1.78 | 4.23 | > 200 | 3.84 |  |  |  |  |  |  |  |  |  |
| O=C1CCN(C(=O)c2cc(Cc3n[nH]c(=O)c4ccccc34)ccc2F)CC1 | > 200 | > 200 | > 200 | > 200 | > 200 | > 200 |  |  |  |  |  |  |  |  |  |
| O=C1/C(=C/c2ccccn2)CN(C(=O)c2cc(Cc3n[nH]c(=O)c4ccccc34)ccc2F)C/C1=C\c1ccccn1 | 1.47 | 0.75 | 37.3 | 0.1 | 2.83 | 2.88 | 200 | 3.48 | 29.569 | 4.32 | 4.88 | Active |  |  |  |
| O=C1/C(=C/c2cccc(F)c2)CN(C(=O)c2cc(Cc3n[nH]c(=O)c4ccccc34)ccc2F)C/C1=C\c1cccc(F)c1 | 1.46 | 5.17 | 1.68 | 2.39 | > 200 | 10.6 |  |  |  |  |  |  |  |  |  |
| O=C1/C(=C/c2ccc3c(c2)OCO3)CN(C(=O)c2cc(Cc3n[nH]c(=O)c4ccccc34)ccc2F)C/C1=C\c1ccc2c(c1)OCO2 | 25.8 | 21.1 | 32 | 13.9 | > 200 | 44.7 |  |  |  |  |  |  |  |  |  |
| O=C1/C(=C/c2ccncc2)CN(C(=O)c2cc(Cc3n[nH]c(=O)c4ccccc34)ccc2F)C/C1=C\c1ccncc1 | 0.97 | 4.38 | 0.202 | 0.1 | 2.53 | 2.72 | 200 |  | 39.975 |  |  | Active | Active | 0.97 |  |
| O=C1/C(=C/c2cccnc2)CN(C(=O)c2cc(Cc3n[nH]c(=O)c4ccccc34)ccc2F)C/C1=C\c1cccnc1 | > 200 | 7.6 | 82.8 | 2 | 15.9 | 5.3 |  | 3.58 | 28.257 | 4.43 | 4.89 | Active |  |  | 40 |
| O=C1/C(=C/c2ccc(F)cc2)CN(C(=O)c2cc(Cc3n[nH]c(=O)c4ccccc34)ccc2F)C/C1=C\c1ccc(F)cc1 | 173 | > 200 | > 200 | > 200 | > 200 | 36.1 |  |  |  |  |  |  |  |  |  |
| O=C1/C(=C/c2ccccc2O)CN(C(=O)c2cc(Cc3n[nH]c(=O)c4ccccc34)ccc2F)C/C1=C\c1ccccc1O | > 200 | > 200 | > 200 | 29.2 | > 200 | > 200 |  |  |  |  |  |  |  |  |  |
| O=C1/C(=C/c2ccccc2F)CN(C(=O)c2cc(Cc3n[nH]c(=O)c4ccccc34)ccc2F)C/C1=C\c1ccccc1F | 2.05 | 7.63 | 2.02 | 3.62 | > 200 | 16.1 |  |  |  |  |  |  |  |  |  |

From ChEMBL document CHEMBL4627353, “Synthesis of novel dual target inhibitors of PARP and HSP90 and their antitumor activities” (Bioorg Med Chem, 2020)
